Like-named read-outs stand apart in the source and are kept apart here.

In experiment [1] the test system is Phytophthora infestans. The format is in vivo. The note with it: inoculated 3 days after spraying.
Another experiment relates to Pythium glaminicola. Particulars: 10 ml soil drench, from percentage of onset area after 2 weeks.
Another experiment relates to Peronospora parasitica. The experiment is described as follows: cabbage downy mildew, pot test: preventive effect. Particulars: inoculated 3 days after spraying.
Experiment [2] relates to Pseudoperonospora cubensis. In words: cucumber downy mildew, pot test: preventive effect. The note with it: for Preventive value (3 DAS): inoculated 3 days after spraying; for Preventive value (5 DAS): inoculated 5 days after spraying.
Description: Test plants (cucumber, variety: Sagami hanpaku) were seeded and grown until the one true leaf stage. D-Tagatose was diluted to 5%, 1% and 0.5% with distilled water and then 10 ml of the dilution was sprayed on the test plant. Three or five days after spraying, a sporangium suspension of Pseudoperonospora cubensis containing 1×10^3/ml were inoculated by spraying on test plants and then the plants were put for 16 hours in an incubation chamber (20° C. to 23° C.) to promote disease. Seven days after inoculation the disease severity of the test plants was observed and the effectiveness of test sample was judged. Tests were carried out using two plants for each test set and the disease severity of the test plants was judged in accordance with the following criteria. The preventive value was calculated from the degree of the disease severity.
(§1) 0 (No lesion) 1 (Lesion area was not more than 40%) 2 ((Lesion area was 40%-80%) 3 (Lesion area was not less than 80%)
Preventive value=100{1−(n/N)} N=disease severity of untreated leaf, n=disease severity of the tested leaf
Experiment [3] deals with Pseudoperonospora cubensis. In words: cucumber downy mildew, pot test: curative effect.
Description: Test plants (cucumber, variety: Sagami hanpaku) were seeded and grown until the one true leaf stage. And then a sporangium suspension of Pseudoperonospora cubensis containing 1×10^3/ml were sprayed on the back side of the leaves of test plants for inoculation and then the plants were put for 16 hours in an inoculation chamber (20° C. to 23° C.) to promote disease. For a curative test, the inoculated plants as described above were used.
D-Tagatose was diluted to 5%, 1% and 0.5% with distilled water and then 10 ml of the dilution was sprayed on the test plant. Seven days after the spraying of D-tagatose the disease severity of the test plants was observed and the effectiveness of test sample was judged. Tests were carried out using two plants for each test set and the disease severity of the test plants was judged. The control value was calculated from the degree of disease severity as in Example 1.
The test system of experiment [4] is Pythium aphanidermatum. The note with it: 10 ml soil drench, from germination rate after 2 weeks.
Description: Five seeds of test plants (cucumber, variety: Sagami hanpaku) were sowed in a pot (5×5 cm), which contains infested soil with Pythium aphanidermatum (mycelium 100 g/1 L soil) and the seeds were covered with the soil. […] After 2 weeks, the disease severity of the test plants was observed and the effectiveness of test sample was judged. Tests were carried out in triplicate using 5 plants for each test set and the preventive value was calculated from the germination rate.
Experiment [5] relates to Pseudoperonospora cubensis. The note with it: 5 ml soil drench, inoculated 5 days after drenching.
Description: Test plants (cucumber, variety: Sagami hanpaku) were seeded and grown until the one true leaf stage. D-Tagatose was diluted to 5% and 1% with distilled water and then 5 ml of the dilution was drenched into the soil of the pot. Five days after drenching, a sporangium suspension of Pseudoperonospora cubensis containing 1×10^3/ml were noculated by spraying on the test plants and then put them for 16 hours in an inoculation chamber (20° C. to 23° C.) to promote disease. Seven days after inoculation the disease severity of the test plants was observed and the effectiveness of test sample was judged. Tests were carried out using two plants for each test set and the disease severity of the test plants was judged. The preventive value was calculated from the degree of disease severity as in Example 1.
The test system of a further experiment is Sphaerotheca fuligine. In words: cucumber powdery mildew, pot test: preventive effect. Particulars: inoculated 3 days after spraying.
The subject of another experiment is Puccinia recondita. The note with it: Puccinia recondita, in Triticum aestivum, 168 h, read-out: Preventive value.
The subject of experiment [6] is Erysiphe graminis f.sp. hordei. The note with it: Blumeria graminis, in Hordeum vulgare, 168 h, read-out: Preventive value.
Description: Test plants (barley, variety: Akashinriki) were seeded and grown until the one leaf stage. D-tagatose and fungicide were diluted to 5000 ppm and the concentrations listed in table 21, respectively, with distilled water and 10 ml of the dilution was sprayed thoroughly on the plants. Three days after spraying, a condia suspension of Erysiphe graminis f.sp. hordei was inoculated by spraying on test plants. 7 days after inoculation the disease severity of the test plants was observed and the effectiveness of test sample was judged.
The subject of experiment [7] is Pseudoperonospora cubensis. The note with it: alone, 300 ppm.
Description: Test plants (cucumber, variety: Sagami hanpaku) were seeded and grown until the one true leaf stage. D-tagatose alone was diluted to 5%, 1%, 0.5% and 0.1%, and the combination of D-tagatose and other saccharide were diluted to be 0.5% and 0.5% solution respectively with distilled water, and then 10 ml of the dilution was sprayed on the test plant. Three days after spraying of the solution, a sporangium suspension of Pseudoperonospora cubensis containing 1×10^3/ml were inoculated by spraying on test plants and then put them for 16 hours in an inoculation chamber (20° C. to 23° C.) to promote disease. Seven days after inoculation the disease severity of the test plants was observed and the effectiveness of test sample was judged. Tests were carried out using two plants for each test set and the disease severity of the test plants was judged in accordance with the following criteria. The preventive value was calculated from the degree of disease severity as in example 1.
Synergistic effect was determined by the Colby's equation below.
X is the observed effect, in percentage, of the first active ingredient and, and Y is the observed effect, in percentage, of the second active ingredient. E is the effect, in percentage, of the mixture expected from additive contribution of the individual components.
In experiment [8] the test system is Pythium aphanidermatum. The experiment is described as follows: cucumber damping-off, pot test: soil drench of D-tagatose combined with fungicides. Particulars: Pythium aphanidermatum, in Cucumis sativus, soil, 336 h, read-out: Preventive value.
Description: Five seeds of test plants (cucumber, variety: Sagami hanpaku) were sowed in a pot (5×5 cm), which contains infested soil with Pythium aphanidermatum (mycelium 100 g/1 L soil) and was covered with soil. D-Tagatose was diluted to 5000 ppm and the fungicides were diluted to the concentrations listed in table 18, with distilled water. The pot was drenched with 10 ml of the dilution. After 2 weeks, the disease severity of the test plants was observed and the effectiveness of test sample was judged. Tests were carried out in triplicate using 5 plants for each test set and the preventive value was calculated from the germination rate.
Experiment [9] relates to Pseudoperonospora cubensis. Particulars: Pseudoperonospora cubensis, in Cucumis sativus, 168 h, read-out: Preventive value.
A further experiment deals with Sphaerotheca fuliginea. The note with it: Podosphaera fuliginea, in Cucumis sativus, 168 h, read-out: Preventive value.
Experiment [10] has as its system Pseudoperonospora cubensis. Particulars: Pseudoperonospora cubensis, in Cucumis sativus, 168 h, read-out: Preventive value. This is another data set of the same source.
Description: Test plants (cucumber, variety: Sagami hanpaku) were seeded and grown until the one true leaf stage. D-Tagatose was diluted to 5000 ppm and the fungicides were diluted to the concentrations listed in table 14, with distilled water. And then 10 ml of the dilution was sprayed on the test plant. Three days after spraying of the solution, a sporangium suspension of Pseudoperonospora cubensis containing 1×10^3/ml were inoculated by spraying on test plants and then put for 16 hours in an inoculation chamber (20° C. to 23° C.) to promote disease. Seven days after inoculation the disease severity of the test plants was observed and the effectiveness of the test sample was judged. Tests were carried out using two plants for each test set and the disease severity of the test plants was judged in accordance with the following criteria. The preventive value was calculated from the degree of disease severity.
as §1
Preventive value=100{1−(n/N)} N=disease severity of untreated leaf, n=disease severity of the test leaf Synergistic effect was determined by Colby's equation.
For another experiment, the system named is Botrytis cinerea. Particulars: Botrytis cinerea, in Solanum lycopersicum, 168 h, read-out: Preventive value.
Experiment [11] relates to Phytophthora infestans. The experiment is described as follows: whole plant or invertebrate. It is filed as in vivo. The note with it: Phytophthora infestans, in Solanum lycopersicum, 168 h, read-out: Preventive value.
The test system of another experiment is Plasmopara viticola. Particulars: Plasmopara viticola, 168 h, read-out: Preventive value.

Description for Botrytis cinerea: Test plants (tomato, variety: Ogata-fukujyu) were seeded and grown until the three leaf stage. D-Tagatose and fungicide were diluted to 10000 ppm and the concentrations liste in table 23, respectively, with distilled water and 10 ml of the dilution was sprayed on the plants. Three days after spraying the solution, condia suspension of Botrytis cinerea were inoculated by spraying on test plants and then put for 16 hours in an inoculation chamber (20° C. to 23° C.) to promote disease. Seven days after inoculation, the disease severity of the test plants was observed and the effectiveness of test sample was judged.
Description for Peronospora parasitica: Test plants (cabbage, variety: Shikidori) were seeded and grown until 4 leaves stage. […] Three days after spraying, a suspension containing condia of cucumber downy mildew (Peronospora parasitica) was inoculated by spraying on test plants. Seven days after inoculation the disease severity of the test plants was observed and the effectiveness of test sample was judged. Tests were carried out using two plants for each test set and the disease severity of test plants was judged in accordance with the following criteria. The preventive value was calculated from the degree of disease severity as in Example 1.
Description for Plasmopara viticola: Test plants (variety: Neo Muscat) were seeded and grown until three leaves. D-Tagatose was diluted to 5000 ppm and the fungicides were diluted to the concentrations listed in table 16, with distilled water, and 10 ml of the dilution was sprayed on the plants. Three days after the spraying of the dilution, the plants were infected by spraying a sporangium suspension of Plasmopara viticola containing 1×10^3/ml and then put for 16 hours in an inoculation chamber (20° C. to 23° C.) to promote disease. The disease severity of the test plants was observed 7 days after inoculation, and the effectiveness of test sample was judged.
Description for Pythium glaminicola: Four germinated rice seeds (variety: Koshihikari) were sowed in a pot (5×5 cm), which contains infected soil with Pythium glaminicola (mycelium 100 g/1 L soil). The pot was drenched with 10 ml of D-tagatose dilution and the seeds were covered with soil. After 2 weeks, the disease severity of the test plants per rice seedling in 25 cm^2 was observed and the effectiveness of test sample was judged. Tests were carried out in duplicate and the preventive value was calculated from percentage of onset area.

As for `O=C[C@H](O)[C@@H](O)[C@H](O)[C@H](O)CO` [D-Glucose], the Preventive value with Phytophthora infestans [1] (50000 ppm spray) is on record as 0.0; in the experiment with Phytophthora infestans [1] (100000 ppm spray) it was 0.0; in the experiment on Pythium glaminicola (10000 ppm), 3.0; in the experiment on Pythium glaminicola (50000 ppm), 4.5; in the experiment on Peronospora parasitica (10000 ppm spray) it was 0.0; in the experiment on Peronospora parasitica (50000 ppm spray), 0.0. In addition, the Preventive value (with Pythium aphanidermatum [4] (10000 ppm); with Pythium aphanidermatum [4] (50000 ppm); in experiment [5] (10000 ppm); in [5] (50000 ppm); in the experiment with Sphaerotheca fuligine (10000 ppm spray); with Sphaerotheca fuligine (50000 ppm spray)) was 0.0 in each case. Further, the “Preventive value (3 DAS)” value in [2] (5000 ppm spray), in experiment [2] (10000 ppm spray) and in [2] (50000 ppm spray) was 0.0 in each case. Further, the “Preventive value (5 DAS)” value in experiment [2] (5000 ppm spray), in [2] (10000 ppm spray) and in experiment [2] (50000 ppm spray) was 0.0 each time. In addition, the “Preventive value (control value)” value in experiment [3] (5000 ppm sprayed after inoculation (curative)), in [3] (10000 ppm sprayed after inoculation (curative)) and in [3] (50000 ppm sprayed after inoculation (curative)) was 0.0 throughout.
With `COCC(=O)N(c1c(C)cccc1C)C(C)C(=O)OC` (centres unmarked) [Metalaxyl, metalaxyl], the pest or weed control at 250 ppm (in the experiment on Puccinia recondita; in [6]; in the experiment with Sphaerotheca fuliginea; in the experiment with Botrytis cinerea) was 0% in each case. Moreover, the Preventive value was 93.3 with Phytophthora infestans [1] (300 ppm spray); 98.4 in the experiment on Peronospora parasitica (600 ppm spray); 95.0 in the experiment on Pythium aphanidermatum [4] (300 ppm); 100.0 in experiment [5] (300 ppm); 100.0 in experiment [7]. Besides, in experiment [2] (300 ppm spray), the “Preventive value (3 DAS)” value is on record as 100.0. In addition, the “Preventive value (5 DAS)” value in experiment [2] (300 ppm spray) is reported as 100.0. In [3] (300 ppm sprayed after inoculation (curative)), the “Preventive value (control value)” value is given as 100.0. Besides, in the experiment on Pythium aphanidermatum [8], the pest or weed control at 5 ppm turned out to be 83%. Also, the pest or weed control at 2 ppm turned out to be 33% in [9], 67% in [10], 67% in the experiment on Phytophthora infestans [11] and 50% in the experiment with Plasmopara viticola.

The values above are taken from US20110281807A1, “PLANT DISEASE CONTROL AGENT COMPRISING D-TAGATOSE AS ACTIVE INGREDIENT, AND PLANT DISEASE CONTROL METHOD” (NATIONAL UNIVERSITY CORPORATION KAGAWA UNIVERSITY, priority 2008, published 2011).
